Patent publication US11427606B2, “Azithromycin derivatives containing a phosphonium ion as anticancer agents” (Rising Tide Foundation, priority 2017, dated 2022)

Tested on: MDA-231 cancer cells
Assay: Inhibition of proliferation assay: cell confluence (IncuCyte imaging)
Format: cell-based
Settings: compound at 10 uM; MDA-231 cells; IncuCyte images every 3 h over 4-5 d; relative confluence normalised to time zero
Procedure, shortened: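 MDA-231 cancer cells from ATCC were grown in DMEM with 10% FBS, 2 mM Glutamax, 1 mM NEAA and 1 mM sodium pyruvate. An IncuCyte Live Cell Imaging microscope with a 10× objective imaged one field per well every 3 h for 4-5 d. Its built-in algorithm computed percent confluence as a proliferation surrogate, and values were normalised to each sample's time-zero value.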

Structure (SMILES)	% Confluence [%]
CC[C@H]1OC(=O)[C@H](C)[C@@H](O[C@H]2C[C@@](C)(OC)[C@@H](O)[C@H](C)O2)[C@H](C)[C@@H](O[C@@H]2O[C@H](C)C[C@H](N(C)C)[C@H]2O)[C@](C)(O)C[C@@H](C)CN(C(=O)CCCCCCC[P+](c2ccccc2)(c2ccccc2)c2ccc(N(C)C)cc2)[C@H](C)[C@@H](O)[C@]1(C)O [Example 19, {8-[(2R,3S,4R,5R,8R,10R,11R,12S,13S,14R)-11-{[(2S,3R,4S,6R)-4-(dimethylamino)-3-hydroxy-6-methyloxan-2-yl]oxy}-2-ethyl-3,4,10-trihydroxy-13-{[(2R,4R,5S,6S)-5-hydroxy-4-methoxy-4,6-dimethyloxan-2-yl]oxy}-3,5,8,10,12,14-hexamethyl-15-oxo-1-oxa-6-azacyclopentadecan-6-yl]-8-oxooctyl}[4-(dimethylamino)phenyl]diphenylphosphonium hexafluorophosphate(V)]	10.5
CC[C@H]1OC(=O)[C@H](C)[C@@H](O[C@H]2C[C@@](C)(OC)[C@@H](O)[C@H](C)O2)[C@H](C)[C@@H](O[C@@H]2O[C@H](C)C[C@H](N(C)C)[C@H]2O)[C@](C)(O)C[C@@H](C)CN(C(=O)CCCCCCCCCCC[PH](c2cc(C)cc(C)c2)(c2cc(C)cc(C)c2)c2cc(C)cc(C)c2)[C@H](C)[C@@H](O)[C@]1(C)O [Example 29, {12-[(2R,3S,4R,5R,8R,10R,11R,12S,13S,14R)-11-{[(2S,3R,4S,6R)-4-(dimethylamino)-3-hydroxy-6-methyloxan-2-yl]oxy}-2-ethyl-3,4,10-trihydroxy-13-{[(2R,4R,5S,6S)-5-hydroxy-4-methoxy-4,6-dimethyloxan-2-yl]oxy}-3,5,8,10,12,14-hexamethyl-15-oxo-1-oxa-6-azacyclopentadecan-6-yl]-12-oxododecyl}tris(3,5-dimethylphenyl)phosphonium chloride]	4.6
CC[C@H]1OC(=O)[C@H](C)[C@@H](O[C@H]2C[C@@](C)(OC)[C@@H](O)[C@H](C)O2)[C@H](C)[C@@H](O[C@@H]2O[C@H](C)C[C@H](N(C)C)[C@H]2O)[C@](C)(O)C[C@@H](C)CN(C(=O)CCCCCCCCCCC[PH](CCOC)(c2ccccc2)c2ccccc2)[C@H](C)[C@@H](O)[C@]1(C)O [Example 34, {12-[(2R,3S,4R,5R,8R,10R,11R,12S,13S,14R)-11-{[(2S,3R,4S,6R)-4-(dimethylamino)-3-hydroxy-6-methyloxan-2-yl]oxy}-2-ethyl-3,4,10-trihydroxy-13-{[(2R,4R,5S,6S)-5-hydroxy-4-methoxy-4,6-dimethyloxan-2-yl]oxy}-3,5,8,10,12,14-hexamethyl-15-oxo-1-oxa-6-azacyclopentadecan-6-yl]-12-oxododecyl}(2-methoxyethyl)diphenylphosphonium chloride]	5.4
CC[C@H]1OC(=O)[C@H](C)[C@@H](O[C@H]2C[C@@](C)(OC)[C@@H](O)[C@H](C)O2)[C@H](C)[C@@H](O[C@@H]2O[C@H](C)C[C@H](N(C)C)[C@H]2O)[C@](C)(O)C[C@@H](C)CN(C(=O)CCCCC[P+](c2cc(C)cc(C)c2)(c2cc(C)cc(C)c2)c2cc(C)cc(C)c2)[C@H](C)[C@@H](O)[C@]1(C)O [Example 1, {6-[(2R,3S,4R,5R,8R,10R,11R,12S,13S,14R)-11-{[(2S,3R,4S,6R)-4-(dimethylamino)-3-hydroxy-6-methyloxan-2-yl]oxy}-2-ethyl-3,4,10-trihydroxy-13-{[(2R,4R,5S,6S)-5-hydroxy-4-methoxy-4,6-dimethyloxan-2-yl]oxy}-3,5,8,10,12,14-hexamethyl-15-oxo-1-oxa-6-azacyclopentadecan-6-yl]-6-oxohexyl}tris(3,5-dimethylphenyl)phosphoniumhexafluorophosphate(V)]	4.8
